Data from ChEMBL document CHEMBL3991601, “The target landscape of clinical kinase drugs” (Science, 2017).
Activity calls are given as the source filed them. For most assays here, no stated cut-off is given here; in the data, actives have a measured Kd and inactives only a lower limit.

Tests used:
[1] = target: Serine/threonine-protein kinase PAK 4 (Homo sapiens, UniProt O96013)
[2] = target: Cyclin-dependent kinase 3 (Homo sapiens, UniProt Q00526)
TGF-beta receptor type-2 = TGF-beta receptor type-2 (Homo sapiens, UniProt P37173)
[3] = target: T1, Acyl-CoA dehydrogenase family member 11 (Homo sapiens, UniProt Q709F0)
T1 sequence (Q709F0 whole entry): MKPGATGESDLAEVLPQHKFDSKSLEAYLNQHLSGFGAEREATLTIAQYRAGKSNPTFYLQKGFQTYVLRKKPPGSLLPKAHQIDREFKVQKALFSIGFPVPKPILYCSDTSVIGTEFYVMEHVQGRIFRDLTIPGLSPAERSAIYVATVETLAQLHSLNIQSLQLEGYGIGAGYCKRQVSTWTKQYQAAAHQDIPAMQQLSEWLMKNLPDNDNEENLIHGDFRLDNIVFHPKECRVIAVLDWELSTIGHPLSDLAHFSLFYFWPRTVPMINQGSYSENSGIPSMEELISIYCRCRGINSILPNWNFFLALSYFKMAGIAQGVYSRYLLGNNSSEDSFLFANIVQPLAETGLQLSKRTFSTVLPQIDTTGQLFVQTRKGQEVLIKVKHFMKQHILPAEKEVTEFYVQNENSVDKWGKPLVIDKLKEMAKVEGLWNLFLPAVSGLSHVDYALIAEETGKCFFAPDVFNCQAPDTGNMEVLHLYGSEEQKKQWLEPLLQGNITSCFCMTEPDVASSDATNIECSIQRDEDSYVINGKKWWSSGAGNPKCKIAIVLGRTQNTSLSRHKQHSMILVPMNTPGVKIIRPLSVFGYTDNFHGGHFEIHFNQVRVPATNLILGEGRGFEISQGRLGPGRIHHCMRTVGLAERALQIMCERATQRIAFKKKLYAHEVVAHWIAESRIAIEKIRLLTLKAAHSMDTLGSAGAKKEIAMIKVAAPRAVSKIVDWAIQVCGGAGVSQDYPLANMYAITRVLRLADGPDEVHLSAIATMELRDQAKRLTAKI

[4] = target: T2, Serine/threonine-protein kinase STK11 (Homo sapiens, UniProt Q15831)
T2 sequence (Q15831 whole entry): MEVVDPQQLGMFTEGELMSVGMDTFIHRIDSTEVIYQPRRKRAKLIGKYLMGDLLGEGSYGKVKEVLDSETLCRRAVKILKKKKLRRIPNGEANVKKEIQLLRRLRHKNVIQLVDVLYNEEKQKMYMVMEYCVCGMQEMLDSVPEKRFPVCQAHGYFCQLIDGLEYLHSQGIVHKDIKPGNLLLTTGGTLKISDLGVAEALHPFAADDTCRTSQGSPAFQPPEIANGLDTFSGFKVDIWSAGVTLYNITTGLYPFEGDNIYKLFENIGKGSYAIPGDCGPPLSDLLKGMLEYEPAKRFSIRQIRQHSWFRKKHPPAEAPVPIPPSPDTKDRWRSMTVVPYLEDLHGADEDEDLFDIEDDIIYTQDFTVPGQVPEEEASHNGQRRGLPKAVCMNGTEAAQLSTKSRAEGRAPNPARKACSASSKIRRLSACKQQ

[5] = target: Ribosomal protein S6 kinase alpha-3 (Homo sapiens, UniProt P51812)
[6] = target: Atypical kinase COQ8A, mitochondrial (Homo sapiens, UniProt Q8NI60)
[7] = target: Cyclin-dependent kinase 2 (Homo sapiens, UniProt P24941)
[8] = target: Serine/threonine-protein kinase N1 (Homo sapiens, UniProt Q16512)
[9] = target: T3, Serine/threonine-protein kinase Chk1 (Homo sapiens, UniProt O14757)
T3 sequence (O14757 whole entry): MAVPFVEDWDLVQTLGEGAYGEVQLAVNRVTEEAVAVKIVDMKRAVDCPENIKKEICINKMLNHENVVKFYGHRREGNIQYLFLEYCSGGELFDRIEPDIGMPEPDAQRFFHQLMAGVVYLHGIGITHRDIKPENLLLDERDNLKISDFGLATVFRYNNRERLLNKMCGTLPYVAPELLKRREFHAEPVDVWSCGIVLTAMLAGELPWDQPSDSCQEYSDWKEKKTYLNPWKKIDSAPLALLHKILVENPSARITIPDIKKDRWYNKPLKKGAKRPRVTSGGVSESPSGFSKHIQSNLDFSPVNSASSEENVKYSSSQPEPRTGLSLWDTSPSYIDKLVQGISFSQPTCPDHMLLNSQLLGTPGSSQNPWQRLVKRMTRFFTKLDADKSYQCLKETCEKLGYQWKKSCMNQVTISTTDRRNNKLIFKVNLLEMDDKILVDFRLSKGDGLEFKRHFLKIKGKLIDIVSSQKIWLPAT

[10] = target: Casein kinase I isoform alpha (Homo sapiens, UniProt P48729)
[11] = target: Ras-related protein Rab-6A (Homo sapiens, UniProt P20340)
[12] = target: Serine/threonine-protein kinase N2 (Homo sapiens, UniProt Q16513)
[13] = target: U5 small nuclear ribonucleoprotein 200 kDa helicase (Homo sapiens, UniProt O75643)

Chain of Ras-related protein Rab-6A (P20340 whole entry): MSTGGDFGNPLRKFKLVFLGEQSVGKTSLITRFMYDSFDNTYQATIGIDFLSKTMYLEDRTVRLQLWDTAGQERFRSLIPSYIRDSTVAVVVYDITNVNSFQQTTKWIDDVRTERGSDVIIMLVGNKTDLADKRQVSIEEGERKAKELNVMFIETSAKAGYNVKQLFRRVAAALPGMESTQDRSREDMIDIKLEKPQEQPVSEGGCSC
Chain of Serine/threonine-protein kinase N1 (Q16512 whole entry): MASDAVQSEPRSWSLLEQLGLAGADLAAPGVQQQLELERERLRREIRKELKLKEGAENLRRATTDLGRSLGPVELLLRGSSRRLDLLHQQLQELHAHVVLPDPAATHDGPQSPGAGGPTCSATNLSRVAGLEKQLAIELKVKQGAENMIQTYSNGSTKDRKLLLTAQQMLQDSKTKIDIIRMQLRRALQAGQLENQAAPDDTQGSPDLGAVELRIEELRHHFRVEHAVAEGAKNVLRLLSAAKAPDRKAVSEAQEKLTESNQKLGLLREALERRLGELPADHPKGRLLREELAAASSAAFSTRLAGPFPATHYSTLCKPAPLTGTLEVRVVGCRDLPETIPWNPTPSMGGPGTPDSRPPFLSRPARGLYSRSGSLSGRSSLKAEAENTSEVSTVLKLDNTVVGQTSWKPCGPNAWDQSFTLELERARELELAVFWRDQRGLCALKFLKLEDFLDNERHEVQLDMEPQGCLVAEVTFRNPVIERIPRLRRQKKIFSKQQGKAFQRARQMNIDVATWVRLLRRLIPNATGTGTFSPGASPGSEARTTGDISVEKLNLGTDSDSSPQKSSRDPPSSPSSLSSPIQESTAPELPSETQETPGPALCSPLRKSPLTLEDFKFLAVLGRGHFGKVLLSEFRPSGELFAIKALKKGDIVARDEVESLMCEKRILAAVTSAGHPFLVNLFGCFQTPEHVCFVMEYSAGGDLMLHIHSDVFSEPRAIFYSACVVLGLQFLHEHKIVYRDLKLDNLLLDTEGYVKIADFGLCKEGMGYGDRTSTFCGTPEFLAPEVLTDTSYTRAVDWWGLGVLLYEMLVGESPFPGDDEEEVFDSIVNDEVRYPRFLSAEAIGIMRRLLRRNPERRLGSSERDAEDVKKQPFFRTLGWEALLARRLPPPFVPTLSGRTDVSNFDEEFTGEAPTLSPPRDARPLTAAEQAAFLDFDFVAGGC
Chain of Ribosomal protein S6 kinase alpha-3 (P51812 whole entry): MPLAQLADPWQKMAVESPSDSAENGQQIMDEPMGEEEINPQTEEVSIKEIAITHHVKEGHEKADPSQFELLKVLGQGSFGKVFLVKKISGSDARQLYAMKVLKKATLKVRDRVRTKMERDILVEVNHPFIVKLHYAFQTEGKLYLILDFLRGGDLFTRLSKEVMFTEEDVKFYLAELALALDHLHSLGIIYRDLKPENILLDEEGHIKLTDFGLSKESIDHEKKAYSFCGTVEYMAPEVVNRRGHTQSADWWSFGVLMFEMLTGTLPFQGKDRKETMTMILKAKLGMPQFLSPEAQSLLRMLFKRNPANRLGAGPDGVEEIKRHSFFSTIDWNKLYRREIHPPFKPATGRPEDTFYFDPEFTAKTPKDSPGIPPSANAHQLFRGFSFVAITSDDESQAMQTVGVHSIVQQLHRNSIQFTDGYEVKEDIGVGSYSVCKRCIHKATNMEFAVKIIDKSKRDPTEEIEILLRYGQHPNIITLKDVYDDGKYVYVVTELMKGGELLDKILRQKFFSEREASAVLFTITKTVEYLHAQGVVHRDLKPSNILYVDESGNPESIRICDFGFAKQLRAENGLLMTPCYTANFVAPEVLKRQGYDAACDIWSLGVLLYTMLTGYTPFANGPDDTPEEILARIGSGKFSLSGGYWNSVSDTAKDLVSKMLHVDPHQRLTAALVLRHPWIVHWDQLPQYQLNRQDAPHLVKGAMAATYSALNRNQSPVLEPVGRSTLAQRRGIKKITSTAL
Chain of Casein kinase I isoform alpha (P48729 whole entry, canonical isoform): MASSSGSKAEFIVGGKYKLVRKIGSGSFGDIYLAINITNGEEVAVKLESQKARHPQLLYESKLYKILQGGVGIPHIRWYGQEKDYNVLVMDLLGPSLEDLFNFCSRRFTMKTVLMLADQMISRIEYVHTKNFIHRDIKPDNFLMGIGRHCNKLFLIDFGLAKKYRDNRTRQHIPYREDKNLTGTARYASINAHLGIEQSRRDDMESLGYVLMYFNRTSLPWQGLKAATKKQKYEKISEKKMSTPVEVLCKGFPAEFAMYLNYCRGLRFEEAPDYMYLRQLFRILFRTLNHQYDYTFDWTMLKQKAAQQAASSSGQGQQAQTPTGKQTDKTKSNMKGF
Chain of Serine/threonine-protein kinase PAK 4 (O96013 whole entry): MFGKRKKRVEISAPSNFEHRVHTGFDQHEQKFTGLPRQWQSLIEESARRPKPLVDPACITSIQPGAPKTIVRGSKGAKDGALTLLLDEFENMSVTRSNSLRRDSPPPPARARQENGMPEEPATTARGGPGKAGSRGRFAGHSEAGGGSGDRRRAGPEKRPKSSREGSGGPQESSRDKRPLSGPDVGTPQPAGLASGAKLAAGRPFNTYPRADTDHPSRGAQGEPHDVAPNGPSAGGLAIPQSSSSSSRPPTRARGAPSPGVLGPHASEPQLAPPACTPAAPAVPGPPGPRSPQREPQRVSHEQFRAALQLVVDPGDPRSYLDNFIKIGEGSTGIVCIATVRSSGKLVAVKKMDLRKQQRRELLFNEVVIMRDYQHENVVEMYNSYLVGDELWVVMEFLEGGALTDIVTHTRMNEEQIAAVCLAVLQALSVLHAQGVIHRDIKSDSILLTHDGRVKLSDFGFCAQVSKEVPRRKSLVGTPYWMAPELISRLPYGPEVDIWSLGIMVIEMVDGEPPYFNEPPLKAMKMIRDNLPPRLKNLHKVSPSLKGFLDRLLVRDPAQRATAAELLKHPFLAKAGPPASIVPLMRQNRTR
Chain of Atypical kinase COQ8A, mitochondrial (Q8NI60 whole entry): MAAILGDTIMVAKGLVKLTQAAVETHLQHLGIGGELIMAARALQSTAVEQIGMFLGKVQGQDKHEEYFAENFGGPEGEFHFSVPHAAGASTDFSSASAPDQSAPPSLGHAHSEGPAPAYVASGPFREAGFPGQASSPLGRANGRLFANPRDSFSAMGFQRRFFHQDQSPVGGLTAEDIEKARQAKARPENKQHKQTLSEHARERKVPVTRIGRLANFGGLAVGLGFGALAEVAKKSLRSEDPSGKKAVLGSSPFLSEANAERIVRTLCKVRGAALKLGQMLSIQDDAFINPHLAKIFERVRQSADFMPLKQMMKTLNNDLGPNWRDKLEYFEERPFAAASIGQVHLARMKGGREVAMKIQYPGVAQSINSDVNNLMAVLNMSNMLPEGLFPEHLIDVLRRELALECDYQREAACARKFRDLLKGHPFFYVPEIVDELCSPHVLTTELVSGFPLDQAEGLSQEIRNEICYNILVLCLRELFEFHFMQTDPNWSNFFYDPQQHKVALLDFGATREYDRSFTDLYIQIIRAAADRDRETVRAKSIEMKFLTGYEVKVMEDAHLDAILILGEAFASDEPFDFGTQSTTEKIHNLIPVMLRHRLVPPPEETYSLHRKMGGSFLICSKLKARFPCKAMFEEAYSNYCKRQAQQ
Chain of Serine/threonine-protein kinase N2 (Q16513 whole entry): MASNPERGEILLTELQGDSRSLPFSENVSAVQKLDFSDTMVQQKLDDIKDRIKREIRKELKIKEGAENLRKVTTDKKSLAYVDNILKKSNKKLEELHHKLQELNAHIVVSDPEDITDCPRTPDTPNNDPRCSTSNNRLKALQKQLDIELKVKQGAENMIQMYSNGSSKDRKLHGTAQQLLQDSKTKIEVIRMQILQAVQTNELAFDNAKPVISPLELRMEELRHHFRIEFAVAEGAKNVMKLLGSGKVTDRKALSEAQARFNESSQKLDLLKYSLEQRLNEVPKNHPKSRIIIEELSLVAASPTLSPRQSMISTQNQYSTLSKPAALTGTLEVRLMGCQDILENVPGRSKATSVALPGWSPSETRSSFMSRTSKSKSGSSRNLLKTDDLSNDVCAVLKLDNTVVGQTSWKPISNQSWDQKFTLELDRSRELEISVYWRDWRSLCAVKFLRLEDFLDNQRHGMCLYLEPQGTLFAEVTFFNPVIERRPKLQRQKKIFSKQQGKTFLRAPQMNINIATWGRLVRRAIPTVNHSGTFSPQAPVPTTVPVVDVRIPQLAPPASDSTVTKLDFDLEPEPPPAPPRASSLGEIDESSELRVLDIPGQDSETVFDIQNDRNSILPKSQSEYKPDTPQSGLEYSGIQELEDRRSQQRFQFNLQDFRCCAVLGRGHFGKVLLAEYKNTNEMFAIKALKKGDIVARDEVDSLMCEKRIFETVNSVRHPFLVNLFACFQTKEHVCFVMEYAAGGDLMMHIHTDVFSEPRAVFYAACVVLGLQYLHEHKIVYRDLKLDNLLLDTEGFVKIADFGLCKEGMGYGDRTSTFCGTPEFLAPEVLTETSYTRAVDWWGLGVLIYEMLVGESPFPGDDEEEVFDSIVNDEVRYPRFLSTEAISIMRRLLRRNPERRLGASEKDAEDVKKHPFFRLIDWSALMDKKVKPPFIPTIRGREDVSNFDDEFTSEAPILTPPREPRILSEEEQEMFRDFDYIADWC
Chain of Cyclin-dependent kinase 3 (Q00526 whole entry): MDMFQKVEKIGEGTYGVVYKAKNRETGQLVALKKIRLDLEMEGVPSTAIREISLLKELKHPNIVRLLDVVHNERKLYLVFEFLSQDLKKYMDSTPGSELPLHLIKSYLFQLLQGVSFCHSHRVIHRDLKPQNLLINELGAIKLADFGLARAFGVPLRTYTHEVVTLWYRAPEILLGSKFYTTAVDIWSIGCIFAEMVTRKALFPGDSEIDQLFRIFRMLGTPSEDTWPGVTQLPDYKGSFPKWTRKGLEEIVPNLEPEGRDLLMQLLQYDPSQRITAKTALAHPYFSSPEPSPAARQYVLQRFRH

Compound | Kd [1] | Kd [2] | Kd (TGF-beta receptor type-2) | Kd [3] | Kd [4] | Kd [5] | Kd [6] | Kd [7] | Kd [8] | Kd [9] | Kd [10] | Kd [11] | Kd [12] | Kd [13]
FC(F)(F)c1ccc(CNc2ccc(Cc3c[nH]c4ncc(Cl)cc34)cn2)cn1 [PEXIDARTINIB] | > 30 µM (inactive) | > 30 µM (inactive) | > 30 µM (inactive) | > 30 µM (inactive) | > 30 µM (inactive) | > 30 µM (inactive) | > 30 µM (inactive) | > 30 µM (inactive) | > 30 µM (inactive) | > 30 µM (inactive) | > 30 µM (inactive) | > 30 µM (inactive) | > 30 µM (inactive) | > 30 µM (inactive)
COc1ccc2c(OCc3nnc4ccc(-c5ccccc5)nn34)ccnc2c1 [AMG-208] | > 30 µM (inactive) | > 30 µM (inactive) | > 30 µM (inactive) | > 30 µM (inactive) | > 30 µM (inactive) | > 30 µM (inactive) | > 30 µM (inactive) | > 30 µM (inactive) | > 30 µM (inactive) | > 30 µM (inactive) | > 30 µM (inactive) | > 30 µM (inactive) | > 30 µM (inactive) | > 30 µM (inactive)
COc1cccc2cc(-c3nc([C@H]4CC[C@H](C(=O)O)CC4)n4ncnc(N)c34)[nH]c12 [OSI-027] | > 30 µM (inactive) | > 30 µM (inactive) | > 30 µM (inactive) | > 30 µM (inactive) | > 30 µM (inactive) | > 30 µM (inactive) | > 30 µM (inactive) | > 30 µM (inactive) | > 30 µM (inactive) | > 30 µM (inactive) | > 30 µM (inactive) | > 30 µM (inactive) | > 30 µM (inactive) | > 30 µM (inactive)
O=C(NC[C@H](O)CO)c1ccncc1Nc1ccc(I)cc1F [PIMASERTIB] | > 30 µM (inactive) | > 30 µM (inactive) | > 30 µM (inactive) | > 30 µM (inactive) | > 30 µM (inactive) | > 30 µM (inactive) | > 30 µM (inactive) | > 30 µM (inactive) | > 30 µM (inactive) | > 30 µM (inactive) | > 30 µM (inactive) | > 30 µM (inactive) | > 30 µM (inactive) | > 30 µM (inactive)
O=S(=O)(c1cccc2c(O)nccc12)N1CCCNCC1 [HYDROXYFASUDIL] | > 30 µM (inactive) | > 30 µM (inactive) | > 30 µM (inactive) | > 30 µM (inactive) | > 30 µM (inactive) | > 30 µM (inactive) | > 30 µM (inactive) | > 30 µM (inactive) | 2.92 µM (active) | > 30 µM (inactive) | > 30 µM (inactive) | > 30 µM (inactive) | 2.26 µM (active) | > 30 µM (inactive)
